Source: patent publication US10640534B2 (Agios Pharmaceuticals, Inc., priority 2012, dated 2020)

Test system: U87MG cells
Assay: Cellular assay, inhibition of 2-HG production in U87MG cells
Type: cell-based
Details: Homo sapiens, U-87 MG, 48 h
Method in brief: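 HT1080 or U87MG cells (U87MG kept with 500 ug/mL G418) seeded at 5000 cells/well and treated with compound at 0.2% final DMSO. Incubated 48 h at 37 °C. 2-HG inhibition determined by LC-MS. Viability read by CellTiter-Glo luminescence at 72 h post-dose.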

SMILES | IC50 [nM]
N#Cc1ccnc(N2C(=O)CC[C@H]2C(=O)N(c2ccc3[nH]ncc3c2)[C@H](C(=O)NC2CC(F)(F)C2)c2ccccc2Cl)c1 [Compound 175, (S)—N—((S)-1-(2-Chlorophenyl)-2-((3,3-difluorocyclobutyl)amino)-2-oxoethyl)-1-(4-cyanopyridin-2-yl)-N-(1H-indazol-5-yl)-5-oxopyrrolidine-2-carboxamide] | < 100
CS(=O)(=O)c1cc(F)cc(N(C(=O)[C@@H]2CCC(=O)N2c2nccc(C#N)n2)[C@H](C(=O)NC2CCC(F)(F)CC2)c2ccccc2Cl)c1 [Compound 168, (S)—N—((S)-1-(2-Chlorophenyl)-2-((4,4-difluorocyclohexyl)amino)-2-oxoethyl)-1-(4-cyanopyrimidin-2-yl)-N-(3-fluoro-5-(methylsulfonyl)phenyl)-5-oxopyrrolidine-2-carboxamide] | < 100
N#Cc1ccnc(N2C(=O)OCC[C@H]2C(=O)N(c2cccc(F)c2)C(C(=O)NC2CC(F)(F)C2)c2ccccc2Cl)c1 (stereo partly drawn) [Compound 90, (4S)—N-(1-(2-Chlorophenyl)-2-(3,3-difluorocyclobutylamino)-2-oxoethyl)-3-(4-cyanopyridin-2-yl)-N-(3-fluorophenyl)-2-oxo-1,3-oxazinane-4-carboxamide] | < 100
N#Cc1ccnc(N2C(=O)CC[C@H]2C(=O)N(c2cccc(OC(F)F)c2)[C@H](C(=O)NC2CC(F)(F)C2)c2ccccc2Cl)c1 (single isomer, unassigned) [Compound 181] | < 100
CC(C)(O)c1cccc(N(C(=O)[C@@H]2CCC(=O)N2c2cc(C#N)ccn2)[C@H](C(=O)NC2CC(F)(F)C2)c2ccccc2Cl)c1 [Compound 179, (S)—N—((S)-1-(2C)-2-((3,3-difluorocyclobutyl)amino)-2-oxoethyl)-1-(4-cyanopyridin-2-yl)-N-(3-(2-hydroxypropan-2-yl)phenyl)-5-oxopyrrolidine-2-carboxamide] | < 100
O=C(NC1CCCCC1)[C@H](c1ccccc1Cl)N(C(=O)[C@@H]1CCC(=O)N1c1ncccn1)c1cccc(F)c1 [Compound 7] | < 100
O=C(NC1CC(F)(F)C1)[C@H](c1ccccc1Cl)N(C(=O)[C@@H]1CCC(=O)N1c1cscn1)c1cccc(F)c1 [Compound 43, (S)—N—((S)-1-(2-Chlorophenyl)-2-(3,3-difluorocyclobutylamino)-2-oxoethyl)-N-(3-fluorophenyl)-5-oxo-1-(thiazol-4-yl)pyrrolidine-2-carboxamide] | < 100
C[S@+]([O-])c1cc(F)cc(N(C(=O)[C@@H]2CCC(=O)N2c2cc(C#N)ccn2)[C@H](C(=O)NC2CC(F)(F)C2)c2ccccc2Cl)c1 [Compound 190, (S)—N—((S)-1-(2-Chlorophenyl)-2-(3,3-difluorocyclobutylamino)-2-oxoethyl)-1-(4-cyanopyridin-2-yl)-N-(3-fluoro-5-((S)-methylsulfinyl)phenyl)-5-oxopyrrolidine-2-carboxamide] | < 100
N#Cc1ccnc(N2C(=O)[C@@H](O)C[C@H]2C(=O)N(c2cc(F)cc(F)c2)[C@H](C(=O)NC2CCC(F)(F)CC2)c2ccccc2Cl)c1 [Compound 174, (2S,4S)—N—((S)-1-(2-Chlorophenyl)-2-((4,4-difluorocyclohexyl)amino)-2-oxoethyl)-1-(4-cyanopyridin-2-yl)-N-(3,5-difluorophenyl)-4-hydroxy-5-oxopyrrolidine-2-carboxamide] | < 100
CN(C)c1cccc(N(C(=O)[C@@H]2CCC(=O)N2c2cc(C#N)ccn2)[C@H](C(=O)NC2CC(F)(F)C2)c2ccccc2Cl)c1 [Compound 161, (S)—N—((S)-1-(2-Chlorophenyl)-2-(3,3-difluorocyclobutylamino)-2-oxoethyl)-1-(4-cyanopyridin-2-yl)-N-(3-(dimethylamino)phenyl)-5-oxopyrrolidine-2-carboxamide] | < 100
N#Cc1ccnc(N2C(=O)CC[C@H]2C(=O)N(c2cncc(F)c2)[C@H](C(=O)NC2CC(F)(F)C2)c2ccccc2Cl)c1 [Compound 176, (S)—N—((S)-1-(2-Chlorophenyl)-2-(3,3-difluorocyclobutylamino)-2-oxoethyl)-1-(4-cyanopyridin-2-yl)-N-(5-fluoropyridin-3-yl)-5-oxopyrrolidine-2-carboxamide] | < 100
